In patent US9346812B2, “Substituted pyrrolopyrimidine compounds, compositions thereof, and methods of treatment therewith” (Signal Pharmaceutical LLC, priority 2013, dated 2016):

Test system: CAL51 cell proliferation
Assay: Cell Titer Glo Proliferation Assay (CAL51)
Assay type: cell-based, human
Details: Homo sapiens, CAL-51; CAL51 cell proliferation, 72 h, Cell Titer Glo luminescence; read-out: Act. Level
In short: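 CAL51 triple-negative breast cancer cells in DMEM or RPMI with 10% FBS were treated after overnight culture with serially diluted compound at 0.2% final DMSO. After 72 h, viability was read as CellTiter-Glo luminescence.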

SMILES | IC50 [nM]
CCOc1ccc(-c2c[nH]c3nc(Nc4ccc(C(=O)NC)cc4OC)nc(O[C@H]4CCOC4)c23)cn1 [Example 161, (S)-4-(5-(6-ethoxypyridin-3-yl)-4-(tetrahydrofuran-3-yloxy)-7H-pyrrolo[2,3-d]pyrimidin-2-ylamino)-3-methoxy-N-methylbenzamide] | 100 to 400
CCOc1ccc(-c2c[nH]c3nc(Nc4ccc(C(=O)NC)cc4C)nc(O[C@H]4CCOC4)c23)cn1 [Example 162, (S)-4-(5-(6-ethoxypyridin-3-yl)-4-(tetrahydrofuran-3-yloxy)-7H-pyrrolo[2,3-d]pyrimidin-2-ylamino)-N,3-dimethylbenzamide] | 100 to 400
CNC(=O)c1ccc(Nc2nc(OC3CCOCC3)c3c(-c4ccn(C)n4)c[nH]c3n2)c(OC)c1 [Example 163, 3-methoxy-N-methyl-4-(5-(1-methyl-1H-pyrazol-3-yl)-4-(tetrahydro-2H-pyran-4-yloxy)-7H-pyrrolo[2,3-d]pyrimidin-2-ylamino)benzamide] | < 100
Cc1cc(C(=O)N(C)C)ccc1Nc1nc(O[C@H]2CCOC2)c2c(-c3cnn(C)c3)c[nH]c2n1 [Example 164, (S)-N,N,3-trimethyl-4-(5-(1-methyl-1H-pyrazol-4-yl)-4-(tetrahydrofuran-3-yloxy)-7H-pyrrolo[2,3-d]pyrimidin-2-ylamino)benzamide] | < 100
CNC(=O)c1ccc(Nc2nc(O[C@H]3CCOC3)c3c(-c4cnn(C)c4)c[nH]c3n2)c(C)c1 [Example 165, (S)-N,3-dimethyl-4-(5-(1-methyl-1H-pyrazol-4-yl)-4-(tetrahydrofuran-3-yloxy)-7H-pyrrolo[2,3-d]pyrimidin-2-ylamino)benzamide] | < 100
CNC(=O)c1ccc(Nc2nc(OC)c3c(-c4ccnc(C)c4)c[nH]c3n2)c(OC)c1 [Example 166, 3-methoxy-4-(4-methoxy-5-(2-methylpyridin-4-yl)-7H-pyrrolo [2,3-d]pyrimidin-2-ylamino)-N-methylbenzamide] | < 100
CNC(=O)c1ccc(Nc2nc(OC3CCOCC3)c3c(-c4ccnc(C)c4)c[nH]c3n2)c(OC)c1 [Example 167, 3-methoxy-N-methyl-4-(5-(2-methylpyridin-4-yl)-4-(tetrahydro-2H-pyran-4-yloxy)-7H-pyrrolo[2,3-d]pyrimidin-2-ylamino)benzamide] | < 100
CNC(=O)c1ccc(Nc2nc(OCCO)c3c(-c4ccc5nc(C)oc5c4)c[nH]c3n2)c(OC)c1 [Example 168, 4-(4-(2-hydroxyethoxy)-5-(2-methylbenzo[d]oxazol-6-yl)-7H-pyrrolo[2,3-d]pyrimidin-2-ylamino)-3-methoxy-N-methylbenzamide] | < 100
CNC(=O)c1ccc(Nc2nc(O[C@H]3CCOC3)c3c(-c4ccc5nc(C)oc5c4)c[nH]c3n2)c(OC)c1 [Example 169, (S)-3-methoxy-N-methyl-4-(5-(2-methylbenzo[d]oxazol-6-yl)-4-(tetrahydrofuran-3-yloxy)-7H-pyrrolo[2,3-d]pyrimidin-2-ylamino)benzamide] | < 100
CNC(=O)c1ccc(Nc2nc(OC3CCOCC3)c3c(-c4ccc5nc(C(C)C)oc5c4)c[nH]c3n2)c(OC)c1 [Example 170, 4-(5-(2-isopropylbenzo[d]oxazol-6-yl)-4-(tetrahydro-2H-pyran-4-yloxy)-7H-pyrrolo[2,3-d]pyrimidin-2-ylamino)-3-methoxy-N-methylbenzamide] | 100 to 400
CNC(=O)c1ccc(Nc2nc(OC3CCOCC3)c3c(-c4nccn4C)c[nH]c3n2)c(OC)c1 [Example 172, 3-methoxy-N-methyl-4-(5-(1-methyl-1H-imidazol-2-yl)-4-(tetrahydro-2H-pyran-4-yloxy)-7H-pyrrolo[2,3-d]pyrimidin-2-ylamino)benzamide] | 1000 to 10000
CNC(=O)c1ccc(Nc2nc(OC3CCOCC3)c3c(-c4ncco4)c[nH]c3n2)c(OC)c1 [Example 173, 3-methoxy-N-methyl-4-(5-(oxazol-2-yl)-4-(tetrahydro-2H-pyran-4-yloxy)-7H-pyrrolo[2,3-d]pyrimidin-2-ylamino)benzamide] | 400 to 1000
CNC(=O)c1ccc(Nc2nc(OC3CCOCC3)c3c(-c4nnco4)c[nH]c3n2)c(OC)c1 [Example 174, 4-(5-(1,3,4-oxadiazol-2-yl)-4-(tetrahydro-2H-pyran-4-yloxy)-7H-pyrrolo[2,3-d]pyrimidin-2-ylamino)-3-methoxy-N-methylbenzamide] | 400 to 1000
CNC(=O)c1ccc(Nc2nc(OC3CCOCC3)c3c(-c4cccc([C@H](C)O)c4)c[nH]c3n2)c(OC)c1 [Example 175, (S)-4-(5-(3-(1-hydroxyethyl)phenyl)-4-(tetrahydro-2H-pyran-4-yloxy)-7H-pyrrolo[2,3-d]pyrimidin-2-ylamino)-3-methoxy-N-methylbenzamide] | 100 to 400
Cc1cc(C(=O)N(C)C)ccc1Nc1nc(O[C@H]2CCOC2)c2c(-c3ccncc3)c[nH]c2n1 [Example 176, (S)-N,N,3-trimethyl-4-(5-(pyridin-4-yl)-4-(tetrahydrofuran-3-yloxy)-7H-pyrrolo[2,3-d]pyrimidin-2-ylamino)benzamide] | 100 to 400
CNC(=O)c1ccc(Nc2nc(OC)c3c(-c4cnn(C)c4)c[nH]c3n2)c(OC)c1 [Example 177, 3-methoxy-4-(4-methoxy-5-(1-methyl-1H-pyrazol-4-yl)-7H-pyrrolo [2,3-d]pyrimidin-2-ylamino)-N-methylbenzamide] | 100 to 400
CNC(=O)c1ccc(Nc2nc(O[C@H]3CCOC3)c3c(-c4ccnc(C)c4)c[nH]c3n2)c(OC)c1 [Example 178, (S)-3-methoxy-N-methyl-4-(5-(2-methylpyridin-4-yl)-4-(tetrahydrofuran-3-yloxy)-7H-pyrrolo [2,3-d]pyrimidin-2-ylamino) benzamide] | < 100
CNC(=O)c1ccc(Nc2nc(OC3COC3)c3c(-c4ccc5nc(C)oc5c4)c[nH]c3n2)c(OC)c1 [Example 179, 3-methoxy-N-methyl-4-(5-(2-methylbenzo[d]oxazol-6-yl)-4-(oxetan-3-yloxy)-7H-pyrrolo[2,3-d]pyrimidin-2-ylamino)benzamide] | < 100
CNC(=O)c1ccc(OC)c(Nc2nc(OC(C)C)c3c(-c4ccc5nc(C)oc5c4)c[nH]c3n2)c1 [Example 180, 3-(4-isopropoxy-5-(2-methylbenzo[d]oxazol-6-yl)-7H-pyrrolo[2,3-d]pyrimidin-2-ylamino)-4-methoxy-N-methylbenzamide] | 100 to 400
CNC(=O)c1ccc(OC)c(Nc2nc(OC3CCOCC3)c3c(-c4ccc5nc(C)oc5c4)c[nH]c3n2)c1 [Example 181, 4-methoxy-N-methyl-3-(5-(2-methylbenzo[d]oxazol-6-yl)-4-(tetrahydro-2H-pyran-4-yloxy)-7H-pyrrolo[2,3-d]pyrimidin-2-ylamino)benzamide] | 100 to 400
CNC(=O)c1ccc(-c2c[nH]c3nc(Nc4ccc(C(=O)NC)cc4OC)nc(O[C@H]4CCOC4)c23)cc1 [Example 182, (S)-3-methoxy-N-methyl-4-(5-(4-(methylcarbamoyl)phenyl)-4-(tetrahydrofuran-3-yloxy)-7H-pyrrolo[2,3-d]pyrimidin-2-ylamino)benzamide] | < 100
CNC(=O)c1ccc(Nc2nc(OC3CCOCC3)c3c(-c4ccc5nc(C)oc5c4)c[nH]c3n2)c(OC)n1 [Example 183, 6-methoxy-N-methyl-5-(5-(2-methylbenzo[d]oxazol-6-yl)-4-(tetrahydro-2H-pyran-4-yloxy)-7H-pyrrolo[2,3-d]pyrimidin-2-yalmino)picolinamide] | 100 to 400
CNC(=O)c1ccc(Nc2nc(OC3CCOCC3)c3c(-c4cnn(C)c4)c[nH]c3n2)c(OC)c1 [Example 184, 3-methoxy-N-methyl-4-(5-(1-methyl-1H-pyrazol-4-yl)-4-(tetrahydro-2H-pyran-4-yloxy)-7H-pyrrolo[2,3-d]pyrimidin-2-ylamino)benzamide] | < 100
CNC(=O)c1ccc(Nc2nc(OC(C)C)c3c(-c4ccnc(OC)c4)c[nH]c3n2)c(OC)c1 [Example 185, 4-(4-isopropoxy-5-(2-methoxypyridin-4-yl)-7H-pyrrolo [2,3-d]pyrimidin-2-ylamino)-3-methoxy-N-methylbenzamide] | < 100
CNC(=O)c1ccc(Nc2nc(OC3CCOCC3)c3c(-c4cnccn4)c[nH]c3n2)c(OC)c1 [Example 186, 3-methoxy-N-methyl-4-(5-(pyrazin-2-yl)-4-(tetrahydro-2H-pyran-4-yloxy)-7H-pyrrolo[2,3-d]pyrimidin-2-ylamino) benzamide] | 100 to 400
CNC(=O)c1ccc(Nc2nc(OC(C)C)c3c(-c4cccc(S(C)(=O)=O)c4)c[nH]c3n2)c(OC)c1 [Example 187, 4-(4-isopropoxy-5-(3-(methylsulfonyl)phenyl)-7H-pyrrolo[2,3-d]pyrimidin-2-ylamino)-3-methoxy-N-methylbenzamide] | 100 to 400
CNC(=O)c1ccc(-c2c[nH]c3nc(Nc4ccc(C(=O)NC)cc4OC)nc(OC(C)C)c23)cc1 [Example 188, 4-(4-isopropoxy-5-(4-(methylcarbamoyl)phenyl)-7H-pyrrolo[2,3-d]pyrimidin-2-ylamino)-3-methoxy-N-methylbenzamide] | < 100
CNC(=O)c1ccc(Nc2nc(OC(C)C)c3c(-c4cnn(C)c4)c[nH]c3n2)c(OC)c1 [Example 189, 4-(4-isopropoxy-5-(1-methyl-1H-pyrazol-4-yl)-7H-pyrrolo[2,3-d]pyrimidin-2-ylamino)-3-methoxy-N-methylbenzamide] | < 100
CNC(=O)c1ccc(Nc2nc(OC)c3c(-c4ccncc4)c[nH]c3n2)c(OC)c1 [Example 190, 3-methoxy-4-(4-methoxy-5-(pyridin-4-yl)-7H-pyrrolo[2,3-d]pyrimidin-2-ylamino)-N-methylbenzamide] | < 100
CNC(=O)c1ccc(Nc2nc(OC3CCOCC3)c3c(-c4ccc5nc(C)oc5c4)c[nH]c3n2)c(OC(F)(F)F)c1 [Example 192, N-methyl-4-(5-(2-methylbenzo[d]oxazol-6-yl)-4-(tetrahydro-2H-pyran-4-yloxy)-7H-pyrrolo[2,3-d]pyrimidin-2-ylamino)-3-(trifluoromethoxy)benzamide] | 100 to 400
